Results taken from patent US6355799B1, “Substituted benzene compounds, process for their preparation, and herbicidal and defoliant compositions containing them” (ISK Americas Incorporated, priority 1997, dated 2002).

Assays:
Format in all cases: in vivo
[1] = test system: redroot pigweed (Amaranthus retroflexus, AMARE); experiment: Pre-emerge test, greenhouse herbicide activity screening; details: pre-emerge, rated 14 days after application, 0 = no damage, 100 = complete death
Summary of the method: (§1)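 Plants grown in 10 cm pots of sandy loam mix received acetone-dissolved compounds through a moving flat-fan nozzle. Doses ranged from 15 to 1000 g ai/ha. Pre-emerge pots were seeded one day earlier, post-emerge pots 8–21 days earlier. Fourteen days on, each pot was graded 0–100 for damage.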

[2] = test system: barnyardgrass (Echinochloa crus-galli, ECHCG); experiment: as above; details: pre-emerge, rated 14 days after application, 0 = no damage, 100 = complete death
Summary of the method: (§2)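 Rating: 0–100 visual injury, 14 DAA. Application: acetone, 187 l/ha, 15–1000 g ai/ha, flat-fan track sprayer with nozzle 40–45 cm above soil or canopy. Post-emerge runs used 0.25% v/v surfactant on 2–3 leaf plants.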

[3] = test system: green foxtail (Setaria viridis, SETVI); experiment: as above; details: pre-emerge, rated 14 days after application, 0 = no damage, 100 = complete death
Summary of the method: as §2

[4] = test system: ivyleaf morningglory (Ipomoea hederacea, IPOHE); experiment: as above; details: pre-emerge, rated 14 days after application, 0 = no damage, 100 = complete death
Summary of the method: as §2

[5] = test system: johnsongrass (Sorghum halepense, SORHA); experiment: as above; details: pre-emerge, rated 14 days after application, 0 = no damage, 100 = complete death
Summary of the method: as §2

[6] = test system: lambsquarters (Chenopodium album, CHEAL); experiment: as above; details: pre-emerge, rated 14 days after application, 0 = no damage, 100 = complete death
Summary of the method: as §2

[7] = test system: large crabgrass (Digitaria sanguinalis, DIGSA); experiment: as above; details: pre-emerge, rated 14 days after application, 0 = no damage, 100 = complete death
Summary of the method: as §2

[8] = test system: sicklepod (Cassia obtusifolia, CASOB); experiment: as above; details: pre-emerge, rated 14 days after application, 0 = no damage, 100 = complete death
Summary of the method: as §2

[9] = test system: velvetleaf (Abutilon theophrasti, ABUTH); experiment: as above; details: pre-emerge, rated 14 days after application, 0 = no damage, 100 = complete death
Summary of the method: as §2

[10] = test system: field corn (Zea mays L., var. Dekalb 535, CORN); experiment: Pre-emerge test, crop safety; details: pre-emerge, rated 14 days after application, 0 = no damage, 100 = complete death
Summary of the method: (§3)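 Herbicidal damage is scored 0 (none) to 100 (complete plant death) two weeks after a simulated field spray. Rates span 15–1000 g ai/ha, delivered in acetone at 187 l/ha. For post-emergence treatments, plants have 2–3 leaves and the spray carries 0.25% v/v non-ionic surfactant.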

[11] = test system: upland rice (Oryza sp., var. Tebonnet, RICE); experiment: Pre-emerge test, crop safety; details: pre-emerge, rated 14 days after application, 0 = no damage, 100 = complete death
Summary of the method: as §3

[12] = test system: barnyardgrass (Echinochloa crus-galli, ECHCG); experiment: Post-emerge test, greenhouse herbicide activity screening; details: phytotoxicity rating 0-100 (0 no damage, 100 complete death), 14 days after application
Summary of the method: (§4)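 Compounds in acetone were track-sprayed at 15-1000 g ai/ha (187 l/ha) on sandy loam pots: pre-emerge one day after seeding, post-emerge at 2-3 leaf stage with 0.25% v/v non-ionic surfactant. Phytotoxicity was rated 14 days later on a 0 (no damage) to 100 (complete death) scale.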

[13] = test system: green foxtail (Setaria viridis, SETVI); experiment: as above; details: phytotoxicity rating 0-100 (0 no damage, 100 complete death), 14 days after application
Summary of the method: as §4

[14] = test system: ivyleaf morningglory (Ipomoea hederacea, IPOHE); experiment: as above; details: phytotoxicity rating 0-100 (0 no damage, 100 complete death), 14 days after application
Summary of the method: as §4

[15] = test system: johnsongrass (Sorghum halepense, SORHA); experiment: as above; details: phytotoxicity rating 0-100 (0 no damage, 100 complete death), 14 days after application
Summary of the method: as §4

[16] = test system: lambsquarters (Chenopodium album, CHEAL); experiment: as above; details: phytotoxicity rating 0-100 (0 no damage, 100 complete death), 14 days after application
Summary of the method: as §4

[17] = test system: large crabgrass (Digitaria sanguinalis, DIGSA); experiment: as above; details: phytotoxicity rating 0-100 (0 no damage, 100 complete death), 14 days after application
Summary of the method: as §4

[18] = test system: redroot pigweed (Amaranthus retroflexus, AMARE); experiment: as above; details: phytotoxicity rating 0-100 (0 no damage, 100 complete death), 14 days after application
Summary of the method: as §4

[19] = test system: sicklepod (Cassia obtusifolia, CASOB); experiment: as above; details: phytotoxicity rating 0-100 (0 no damage, 100 complete death), 14 days after application
Summary of the method: as §4

[20] = test system: velvetleaf (Abutilon theophrasti, ABUTH); experiment: as above; details: phytotoxicity rating 0-100 (0 no damage, 100 complete death), 14 days after application
Summary of the method: as §4

[21] = test system: field corn (Zea mays L., var. Dekalb 535, CORN); experiment: Post-emerge test, crop safety; details: phytotoxicity rating 0-100 (0 no damage, 100 complete death), 14 days after application
Summary of the method: as §1

[22] = test system: upland rice (Oryza sp., var. Tebonnet, RICE); experiment: Post-emerge test, crop safety; details: phytotoxicity rating 0-100 (0 no damage, 100 complete death), 14 days after application
Summary of the method: as §1

## COC(=O)C=CCOc1c(Cl)cc(F)c(-n2c(=O)cc(C(F)(F)F)n(C)c2=O)c1N [Compound 1-20]
[1]; 63 g ai/ha
  Pre-emerge Herbicidal Activity AMARE (phytotoxicity rating, scale 0-100): 100
[1]; 250 g ai/ha
  Pre-emerge Herbicidal Activity AMARE (phytotoxicity rating, scale 0-100): 100
[2]; 63 g ai/ha
  Pre-emerge Herbicidal Activity ECHCG (phytotoxicity rating, scale 0-100): 50
[2]; 250 g ai/ha
  Pre-emerge Herbicidal Activity ECHCG (phytotoxicity rating, scale 0-100): 100
[3]; 63 g ai/ha
  Pre-emerge Herbicidal Activity SETVI (phytotoxicity rating, scale 0-100): 80
[3]; 250 g ai/ha
  Pre-emerge Herbicidal Activity SETVI (phytotoxicity rating, scale 0-100): 100
[4]; 63 g ai/ha
  Pre-emerge Herbicidal Activity IPOHE (phytotoxicity rating, scale 0-100): 40
[4]; 250 g ai/ha
  Pre-emerge Herbicidal Activity IPOHE (phytotoxicity rating, scale 0-100): 100
[5]; 63 g ai/ha
  Pre-emerge Herbicidal Activity SORHA (phytotoxicity rating, scale 0-100): 30
[5]; 250 g ai/ha
  Pre-emerge Herbicidal Activity SORHA (phytotoxicity rating, scale 0-100): 70
[6]; 63 g ai/ha
  Pre-emerge Herbicidal Activity CHEAL (phytotoxicity rating, scale 0-100): 100
[6]; 250 g ai/ha
  Pre-emerge Herbicidal Activity CHEAL (phytotoxicity rating, scale 0-100): 100
[7]; 63 g ai/ha
  Pre-emerge Herbicidal Activity DIGSA (phytotoxicity rating, scale 0-100): 50
[7]; 250 g ai/ha
  Pre-emerge Herbicidal Activity DIGSA (phytotoxicity rating, scale 0-100): 90
[8]; 63 g ai/ha
  Pre-emerge Herbicidal Activity CASOB (phytotoxicity rating, scale 0-100): 100
[8]; 250 g ai/ha
  Pre-emerge Herbicidal Activity CASOB (phytotoxicity rating, scale 0-100): 100
[9]; 63 g ai/ha
  Pre-emerge Herbicidal Activity ABUTH (phytotoxicity rating, scale 0-100): 100
[9]; 250 g ai/ha
  Pre-emerge Herbicidal Activity ABUTH (phytotoxicity rating, scale 0-100): 100
[10]; 63 g ai/ha
  Pre-emerge crop damage CORN (phytotoxicity rating, scale 0-100): 15
[10]; 250 g ai/ha
  Pre-emerge crop damage CORN (phytotoxicity rating, scale 0-100): 65
[11]; 63 g ai/ha
  Pre-emerge crop damage RICE (phytotoxicity rating, scale 0-100): 60
[11]; 250 g ai/ha
  Pre-emerge crop damage RICE (phytotoxicity rating, scale 0-100): 70
[12]; 63 g ai/ha
  Post-emerge Herbicidal Activity ECHCG: 30
[12]; 250 g ai/ha
  Post-emerge Herbicidal Activity ECHCG: 80
[13]; 63 g ai/ha
  Post-emerge Herbicidal Activity SETVI: 0
[13]; 250 g ai/ha
  Post-emerge Herbicidal Activity SETVI: 60
[14]; 63 g ai/ha
  Post-emerge Herbicidal Activity IPOHE: 100
[14]; 250 g ai/ha
  Post-emerge Herbicidal Activity IPOHE: 100
[15]; 63 g ai/ha
  Post-emerge Herbicidal Activity SORHA: 10
[15]; 250 g ai/ha
  Post-emerge Herbicidal Activity SORHA: 70
[16]; 63 g ai/ha
  Post-emerge Herbicidal Activity CHEAL: 90
[16]; 250 g ai/ha
  Post-emerge Herbicidal Activity CHEAL: 100
[17]; 63 g ai/ha
  Post-emerge Herbicidal Activity DIGSA: 10
[17]; 250 g ai/ha
  Post-emerge Herbicidal Activity DIGSA: 20
[18]; 63 g ai/ha
  Post-emerge Herbicidal Activity AMARE: 90
[18]; 250 g ai/ha
  Post-emerge Herbicidal Activity AMARE: 100
[19]; 63 g ai/ha
  Post-emerge Herbicidal Activity CASOB: 0
[19]; 250 g ai/ha
  Post-emerge Herbicidal Activity CASOB: 50
[20]; 63 g ai/ha
  Post-emerge Herbicidal Activity ABUTH: 100
[20]; 250 g ai/ha
  Post-emerge Herbicidal Activity ABUTH: 100
[21]; 63 g ai/ha
  Post-emerge Herbicidal Activity CORN (crop damage): 10
[21]; 250 g ai/ha
  Post-emerge Herbicidal Activity CORN (crop damage): 40
[22]; 63 g ai/ha
  Post-emerge Herbicidal Activity RICE (crop damage): 20
[22]; 250 g ai/ha
  Post-emerge Herbicidal Activity RICE (crop damage): 50
